Key:
Assay in all cases: ABTS oxidation at […] nm, Lineweaver-Burk, crude culture supernatant
Assay type in all cases: biochemical, Cerrena unicolor
[1] = system: LacA (parent-type αLacA, recombinant); conditions: 100 mM acetate pH 4.0, 30 °C, 10–1000 µM ABTS, air O2; RM1524
[2] = system: LacA (parent-type αLacA, recombinant); conditions: 100 mM acetate pH 4.0, 30 °C, 10–1000 µM ABTS, air O2; RM243
[3] = system: LacA (parent-type αLacA, recombinant); conditions: 100 mM acetate pH 4.0, 30 °C, 10–1000 µM ABTS, air O2; IVA205
[4] = system: LacA (parent-type αLacA, recombinant); conditions: 100 mM acetate pH 4.0, 30 °C, 10–1000 µM ABTS, air O2; RM811
[5] = system: LacA (parent-type αLacA, recombinant); conditions: 100 mM acetate pH 4.0, 30 °C, 10–1000 µM ABTS, air O2; RM1925
[6] = system: LacA (parent-type αLacA, recombinant); conditions: 100 mM acetate pH 4.0, 30 °C, 10–1000 µM ABTS, air O2
[7] = system: LacA (parent-type αLacA, recombinant); conditions: 100 mM acetate pH 4.0, 30 °C, 10–1000 µM ABTS, air O2; RM1307, expressed with leader mutations αN23I/αA75T
[8] = system: LacA (parent-type αLacA, recombinant); conditions: 100 mM acetate pH 4.0, 30 °C, 10–1000 µM ABTS, air O2; IVA264
[9] = system: LacA (parent-type αLacA, recombinant); conditions: 100 mM acetate pH 4.0, 30 °C, 10–1000 µM ABTS, air O2; RM1905
[10] = system: LacA (parent-type αLacA, recombinant); conditions: 100 mM acetate pH 4.0, 30 °C, 10–1000 µM ABTS, air O2; RM464
[11] = system: LacA (parent-type αLacA, recombinant); conditions: 100 mM acetate pH 4.0, 30 °C, 10–1000 µM ABTS, air O2; IVA189

CCn1c(=NN=c2sc3cc(S(=O)(=O)O)ccc3n2CC)sc2cc(S(=O)(=O)O)ccc21 [2,2′-azino-bis(3-ethylbenzothiazoline-6-sulfonic acid)]
Km [1]: 59.8 ± 2.2 µM | Km [2]: 64.8 ± 1.4 µM | Km [3]: 85.3 ± 0.3 µM | Km [4]: 168 µM | Km [5]: 79.8 ± 12.7 µM | Km [6]: 206 ± 11.6 µM | Km [7]: 67.5 ± 1.7 µM | Km [8]: 64 ± 2.5 µM | Km [9]: 147 ± 14.6 µM | Km [10]: 90.2 ± 3.4 µM | Km [11]: 69.8 ± 3.6 µM

— article PMC6213006, “Directed Evolution of a Homodimeric Laccase from Cerrena unicolor BBP6 by Random Mutagenesis and In Vivo Assembly” (International Journal of Molecular Sciences, 2018)
